Data published in patent US20250134667A1, “BIOABSORBABLE AND PHOTOCURABLE COMPOSITION, BIOABSORBABLE GUIDED TISSUE REGENERATION COMPOSITION, AND GRAFTING METHOD USING SAME” (priority 2022, published 2025).
Peptide text beside a SMILES is read from it.

Key:
pNFκB = test: Western blot of pNFkB in Raw264.7 cells; format: cell-based, mouse; conditions: only the peptide, no LPS
Procedure: (§1) Raw264.7 cells were purchased from ATCC (American Type Culture Collection) and used in the experiment. Raw264.7 cells were cultured in a CO2 incubator at 37° C. supplied with 5% CO2 and 95% air using DMEM (Dulbecco's modified Eagle medium) medium supplemented with 10% FBS and 100 units/ml antibiotics (penicillin-streptomycin).
[…] After 8 hours, the treated cells were collected, protease inhibitor cocktail and phosphatase inhibitor cocktail were added to Radioimmunoprecipitation assay buffer (RIPA buffer solution, Thermo Fisher, 89900), and the cells were treated to lyse the cells. After centrifuging the cell lysate and collecting the supernatant, the concentration of the cell lysate was measured using a bicinchoninic acid assay (BCA assay, Thermo Fisher, 23227), and RIPA buffer solution was added thereto to prepare the cell lysate to a final concentration of 5 mg/mL. Then, it was mixed with a buffer solution including 1 M Tris-HCl (pH 6.8), 50% glycerol, and 10% SDS in a 4:1 ratio, and then sodium dodecyl sulfate-poly acrylamide gel electrophoresis (SDS-PAGE) was performed. […]

[1] = system: gingival tissue of an adult dog; test: Tissue penetration ability in animal tissue, adult dog; format: in vivo, adult dog (beagle dog)
Procedure: (§2) The amine group of the peptide having the amino acid of SEQ ID NO: 1 was labeled with fluorescence using Alexa Fluor™ 680 NHS Ester (Thermo Fisher, A20008). The fluorescent labeling method followed the method provided by the manufacturer. The fluorescently labeled peptide was dissolved in water for injection at a concentration of 250 mg/ml, and 10 μL was injected into the gingival sulcus of the premolars of an adult dog (beagle dog) and the anterior gingival sulcus of a rabbit. After 2 hours, to check the permeability of the peptide in the tissue, the animal was sacrificed, the gingival tissue was collected, and tissues were embedded using Tissue-Tek® O.C.T. Compound (Sakura Finetek, 4583). After sectioning the embedded tissue at 10 μm thickness, fluorescently labeled peptides were confirmed using a confocal scanning fluorescence microscope. The nuclei of tissue cells were stained using DAPI.

Raw264.7 cells = test: Cell penetration ability at the cellular level (confocal microscopy); format: cell-based, mouse; conditions: 50, 100, 200 μM, 1 hour
Procedure: The N-terminus of the peptide having the amino acid of SEQ ID NO: 1 prepared in Example 1 was fluorescently labeled with Rhodamine B (Tokyo chemical industry Co., LTD., A5102). Raw264.7 cells were distributed 3×10^4 each into a 4-well chamber and cultured in DMEM medium for 24 hours to stabilize the cells. After 24 hours, fluorescently labeled peptide was added to the medium at concentrations of 50, 100, and 200 μM. After 1 hour of peptide treatment, a degree of penetration of the peptide into cells was observed using a confocal scanning fluorescence microscope […]. Cell nuclei were stained using 4′,6-diamidino-2-phenylindole (DAPI, Thermo Fisher, D1306). DIC represents the case observed under a general microscope, Nuceli represents the nucleus of a cell, Peptide represents the degree of penetration of a peptide bound to rhodamine B, and MERGE represents an image that overlaps images of DIC, Nuclei, and the penetrated peptide.

plkBa = test: Western blot of plkBa in Raw264.7 cells; format: cell-based, mouse; conditions: only the peptide, no LPS
Procedure: as §1
Raw264.7 cells were treated with 200 μM of the peptide having the amino acid sequence of SEQ ID NO: 1 for 30 minutes, and then treated with 1 μg/ml LPS (lipopolysaccharide, Merck, L3024). After 8 hours, the treated cells were collected, protease inhibitor cocktail and phosphatase inhibitor cocktail were added to Radioimmunoprecipitation assay buffer (RIPA buffer solution, Thermo Fisher, 89900), and the cells were treated to lyse the cells. After centrifuging the cell lysate and collecting the supernatant, the concentration of the cell lysate was measured using a bicinchoninic acid assay (BCA assay, Thermo Fisher, 23227), and RIPA buffer solution was added thereto to prepare the cell lysate to a final concentration of 5 mg/mL. Then, it was mixed with a buffer solution including 1 M Tris-HCl (pH 6.8), 50% glycerol, and 10% SDS in a 4:1 ratio, and then sodium dodecyl sulfate-poly acrylamide gel electrophoresis (SDS-PAGE) was performed. […]

[2] = system: gingival tissue of a rabbit; test: Tissue penetration ability in animal tissue, rabbit; format: in vivo; conditions: living rabbit
Procedure: as §2

C[C@@H](O)[C@H](NC(=O)[C@H](CO)NC(=O)[C@H](CS)NC(=O)[C@H](CCCCN)NC(=O)CN)C(=O)N[C@@H](CCCNC(=N)N)C(=O)NCC(=O)N[C@@H](CCCNC(=N)N)C(=O)N[C@@H](CCCCN)C(=O)N[C@@H](CO)C(=O)N[C@@H](CO)C(=O)N[C@@H](CCCNC(=N)N)C(=O)N[C@@H](CCCNC(=N)N)C(=O)N[C@@H](CCCCN)C(=O)N[C@@H](CCCCN)C(N)=O [SEQ ID NO: 1, GKCSTRGRKSSRRKK] (H-GKCSTRGRKSSRRKK-NH2; N-terminus and C-terminus assumed)
expression of pNFκB, peptide only (pNFκB): no effect | penetration into gingival tissue (in words) [1]: penetrated | concentration dependence of intracellular fluorescence (Raw264.7 cells): as the concentration of peptide increased, the intensity of fluorescence also increased | expression of plkBa, peptide only (plkBa): no effect | penetration into gingival tissue (in words) [2]: penetrated
